What all share (format): in vivo
Assay [1] relates to Echinochloa crus-galli (ECHCG). Put plainly: Post-emergence herbicidal glasshouse test, Echinochloa crus-galli. Conditions: Echinochloa crus-galli, 312 h, rate 250 g/ha, evaluated after 13 days, scale 100 = total damage to plant, 0 = no damage. The procedure: (§1) Seeds of a variety of test species were sown in standard soil in pots. After cultivation for one day (pre-emergence) or after 8 days cultivation (post-emergence) under controlled conditions in a glasshouse (at 24/16° C., day/night; 14 hours light; 65% humidity), the plants were sprayed with an aqueous spray solution derived from the formulation of the technical active ingredient in acetone/water (50:50) solution containing 0.5% Tween 20 (polyoxyethelyene sorbitan monolaurate, CAS RN 9005-64-5). The test plants were then grown in a glasshouse under controlled conditions in a glasshouse (at 24/16° C., day/night; 14 hours light; 65% humidity) and watered twice daily. After 13 days for pre and post-emergence, the test was evaluated ([…] to plant; 0=no damage to plant).
(§2) Setaria faberi (SETFA), Lolium perenne (LOLPE), Alopecurus myosuroides (ALOMY), Echinochloa crus-galli (ECHCG) and Avena fatua (AVEFA).

The test system of assay [2] is Alopecurus myosuroides (ALOMY). Kind of assay: Pre-emergence herbicidal glasshouse test, Alopecurus myosuroides. Conditions: Alopecurus myosuroides, 312 h, rate 250 g/ha, evaluated after 13 days, scale 100 = total damage to plant, 0 = no damage. As for the experimental part:
as §1, §2

Assay [3] concerns Avena fatua (AVEFA). Kind of assay: Post-emergence herbicidal glasshouse test, Avena fatua. Conditions: Avena fatua, 312 h, rate 250 g/ha, evaluated after 13 days, scale 100 = total damage to plant, 0 = no damage. As for the experimental part:
as §1, §2

The test system of assay [4] is Alopecurus myosuroides (ALOMY). Put plainly: Post-emergence herbicidal glasshouse test, Alopecurus myosuroides. The note with it: Alopecurus myosuroides, 312 h, rate 250 g/ha, evaluated after 13 days, scale 100 = total damage to plant, 0 = no damage. As for the experimental part:
as §1, §2

For assay [5], the system named is Avena fatua (AVEFA). Kind of assay: Pre-emergence herbicidal glasshouse test, Avena fatua. The note with it: Avena fatua, 312 h, rate 250 g/ha, evaluated after 13 days, scale 100 = total damage to plant, 0 = no damage. As for the experimental part:
as §1, §2

The subject of assay [6] is Lolium perenne (LOLPE). Put plainly: Post-emergence herbicidal glasshouse test, Lolium perenne. Conditions: 312 h, rate 250 g/ha, evaluated after 13 days, scale 100 = total damage to plant, 0 = no damage. As for the experimental part: as §1, §2
Assay [7] relates to Lolium perenne (LOLPE). Kind of assay: Pre-emergence herbicidal glasshouse test, Lolium perenne. Conditions: 312 h, rate 250 g/ha, evaluated after 13 days, scale 100 = total damage to plant, 0 = no damage. The procedure: as §1, §2
The subject of assay [8] is Echinochloa crus-galli (ECHCG). Put plainly: Pre-emergence herbicidal glasshouse test, Echinochloa crus-galli. Conditions: Echinochloa crus-galli, 312 h, rate 250 g/ha, evaluated after 13 days, scale 100 = total damage to plant, 0 = no damage. The procedure: as §1, §2

SMILES strings stand for the structures.

A word on the pest or weed control: it is the degree to which the test organism was suppressed or injured, in per cent. Low readings indicate weak suppression, high ones strong suppression.

As to `CCc1cc(-c2ccc(F)c(F)c2F)ccc1C1=C(O)C(C)(C)OC(C)(C)C1=O` [Compound A-87], the pest or weed control at 250 g/ha worked out at 100% in assay [1]; 0% in assay [2]; 90% in the assay on Avena fatua (AVEFA) [3]; 70% in assay [4]; 0% with Avena fatua (AVEFA) [5]; 90% in the assay with Lolium perenne (LOLPE) [6]. In addition, the pest or weed control at 250 g/ha (in the assay with Lolium perenne (LOLPE) [7]; in assay [8]) was 0% in each case.
For the compound `CCc1cc(-c2cccc(Cl)c2)ccc1C1=C(O)C(C)(C)OC(C)(C)C1=O` [Compound A-95], the pest or weed control at 250 g/ha was 80% in assay [1]; 10% in assay [2]; 50% with Avena fatua (AVEFA) [3]; 80% in assay [4]; 0% with Avena fatua (AVEFA) [5]; 80% in the assay with Lolium perenne (LOLPE) [6]. The pest or weed control at 250 g/ha (in the assay with Lolium perenne (LOLPE) [7]; in assay [8]) was 30% each time.
Turning to `CCc1cc(-c2ccccc2)ccc1C1=C(O)C(C)(C)OC(C)(C)C1=O` [Compound A-96], the pest or weed control at 250 g/ha was 90% in assay [1]; 0% in assay [2]; 10% with Avena fatua (AVEFA) [3]; 80% in assay [4]; 10% with Avena fatua (AVEFA) [5]; 80% in the assay with Lolium perenne (LOLPE) [6]. Moreover, the results for the pest or weed control at 250 g/ha (in the assay on Lolium perenne (LOLPE) [7]; in assay [8]) were 0% and 20%, respectively.
As for `CCc1cc(-c2cc(Cl)cc(Cl)c2)ccc1C1=C(O)C(C)(C)OC(C)(C)C1=O` [Compound A-99], the pest or weed control at 250 g/ha is 100% in assay [1]; 10% in assay [2]; 90% in the assay on Avena fatua (AVEFA) [3]; 90% in assay [4]; 0% with Avena fatua (AVEFA) [5]; 90% with Lolium perenne (LOLPE) [6]. The values for the pest or weed control at 250 g/ha (in the assay with Lolium perenne (LOLPE) [7]; in assay [8]) were 60% and 30%, respectively.
As to `CCc1cc(-c2ccc(F)cc2)ccc1C1=C(O)C(C)(COC)OC(C)(C)C1=O` (stereo not shown) [Compound A-101], the pest or weed control at 250 g/ha came to 100% in assay [1]; 70% in assay [2]; 100% in the assay on Avena fatua (AVEFA) [3]; 100% in assay [4]; 50% in the assay with Avena fatua (AVEFA) [5]; 100% in the assay with Lolium perenne (LOLPE) [6]. The pest or weed control at 250 g/ha came to 90% in the assay on Lolium perenne (LOLPE) [7] and 50% in assay [8].
In the case of `CCc1cc(-c2ccc(F)cc2)ccc1C1=C(O)C(C)(CC)OC(C)(C)C1=O` (stereo not shown) [Compound A-102], the pest or weed control at 250 g/ha was determined as 90% in assay [1]; 60% in assay [2]; 80% in the assay with Avena fatua (AVEFA) [3]; 100% in assay [4]; 10% in the assay on Avena fatua (AVEFA) [5]; 90% in the assay with Lolium perenne (LOLPE) [6]. The pest or weed control at 250 g/ha in the assay with Lolium perenne (LOLPE) [7] was determined as 70%; in assay [8] it was 30%.
As for `CCc1cc(-c2ccc(F)cc2)ccc1C1=C(O)C2(CCCC2)OC(C)(C)C1=O` [Compound A-103], the pest or weed control at 250 g/ha in assay [1] is 90%; in assay [2], 20%; with Avena fatua (AVEFA) [3], 10%; in assay [4] it was 60%; with Avena fatua (AVEFA) [5], 0%; in the assay with Lolium perenne (LOLPE) [6], 60%. Further, the pest or weed control at 250 g/ha (in the assay on Lolium perenne (LOLPE) [7]; in assay [8]) was 20% throughout.
Take `CCc1cc(-c2ccc(F)cc2)ccc1C1=C(O)C(C)(CC)OC(C)(CC)C1=O` (stereo not shown) [Compound A-104]: the pest or weed control at 250 g/ha in assay [1] was determined as 90%; in assay [2], 50%; in the assay with Avena fatua (AVEFA) [3] it was 10%; in assay [4], 90%; with Avena fatua (AVEFA) [5], 0%; in the assay with Lolium perenne (LOLPE) [6], 60%. Further, the pest or weed control at 250 g/ha in the assay with Lolium perenne (LOLPE) [7] was determined as 60%; in assay [8] it was 40%.

Source of the values: US8895761B2, “4-phenylpyrane-3,5-diones, 4-phenylthiopyrane-3,5-diones and 2-phenylcyclohexane-1,3,5-triones as herbicides” (Syngenta Limited, priority 2007, dated 2014).
